Assay [1] has as its target T1, EGFR-L858R/C797S (H1975-clone #8 cells) (Homo sapiens, UniProt P00533, C797S/L858R).
T1 construct: expressed in transfected cells; host or cells: H1975 (endogenous EGFR knocked out, clone #8)
Description: Cell degradation of EGFR, HTRF assay, H1975-clone#8 (L858R/C797S) cells. The class given is cell-based. The note with it: 16 h treatment; for DC50: EGFR degradation; for Dmax: maximum percentage of degradation. Here is the method: The EGFR over-expressed cells then underwent knockout, in which the EGFR targeting sgRNA was designed to only target the endogenous EGFR copies and preserve the exogenous EGFR copies. Followed by the knockout, the edited H1975 cells were seeded in 96 well plates at the concentration of […], cultured for about 2 weeks to allow single clones formation. The formed clones were screened by DNA sequencing and whole exon sequencing analysis for the desired edition.
(§1) H1975-#8 and BaF3-L858R cells are treated with compounds diluted in 0.1% DMSO cell culture medium on day 2, incubate for 16 h, 37° C., 5% CO2. the final concentration of compounds in all assay is start with 10 uM, 5-fold dilution, total 8 doses were included.
(§2) After 16 h treatment, for H1975-#8 cells, add 100 ul HTRF 1× lysis buffer to each well; for BaF3-L858R cells, add 20 μl 4× lysis buffer to each well; seal the plate and incubate 1 hour at room temperature on a plate shaker; Once the cells are lysed, 16 μL of cell lysate are transferred to a PE 384-well HTRF detection plate; 4 μL of pre-mixed HTRF antibodies are added to each well; Cover the plate with a plate sealer, spin 1000 rpm for 1 min, Incubate overnight at room temperature; Read on BMG PheraStar with HTRF protocol (337 nm-665 nm-620 nm).
(§3) High control=Cell group with added DMSO and without compound, indicating microplate readings without EGFR degradation;
(§4) Dmax is the maximum percentage of inhibition (degradation).
(§5) The IC50 (DC50) value of a compound can be obtained by fitting the following equation
(§6) Y=Bottom+(TOP−Bottom)/(1+((IC50/X)^hillslope))
(§7) Wherein, X and Y are known values, and IC50, Hillslope, Top and Bottom are the parameters obtained by fitting with software. […] The experimental data were fitted by calculating and analyzing with Dotmatics data analysis software.

For assay [2], the target named is T2, EGFR L858R (BaF3-L858R cells) (Homo sapiens, UniProt P00533, L858R).
T2 construct: host or cells: BaF3
The assay is described as follows: Cell degradation of EGFR, HTRF assay, BaF3-L858R cells. The note with it: 16 h treatment; for DC50: EGFR degradation; for Dmax: maximum percentage of degradation. The class given is cell-based. The method, then: BaF3-L858R (abbv. L858R) cell were purchased from Kangyuan Bochuang Biotechnology (Beijing) Co., Ltd.
as §1, §2, §3, §4, §5, §6, §7
(In general: TR-FRET usually uses a lanthanide donor and a delayed reading to cut background.)

Molecules are shown by their SMILES.

T1 sequence (P00533 25-1210 C797S/L858R): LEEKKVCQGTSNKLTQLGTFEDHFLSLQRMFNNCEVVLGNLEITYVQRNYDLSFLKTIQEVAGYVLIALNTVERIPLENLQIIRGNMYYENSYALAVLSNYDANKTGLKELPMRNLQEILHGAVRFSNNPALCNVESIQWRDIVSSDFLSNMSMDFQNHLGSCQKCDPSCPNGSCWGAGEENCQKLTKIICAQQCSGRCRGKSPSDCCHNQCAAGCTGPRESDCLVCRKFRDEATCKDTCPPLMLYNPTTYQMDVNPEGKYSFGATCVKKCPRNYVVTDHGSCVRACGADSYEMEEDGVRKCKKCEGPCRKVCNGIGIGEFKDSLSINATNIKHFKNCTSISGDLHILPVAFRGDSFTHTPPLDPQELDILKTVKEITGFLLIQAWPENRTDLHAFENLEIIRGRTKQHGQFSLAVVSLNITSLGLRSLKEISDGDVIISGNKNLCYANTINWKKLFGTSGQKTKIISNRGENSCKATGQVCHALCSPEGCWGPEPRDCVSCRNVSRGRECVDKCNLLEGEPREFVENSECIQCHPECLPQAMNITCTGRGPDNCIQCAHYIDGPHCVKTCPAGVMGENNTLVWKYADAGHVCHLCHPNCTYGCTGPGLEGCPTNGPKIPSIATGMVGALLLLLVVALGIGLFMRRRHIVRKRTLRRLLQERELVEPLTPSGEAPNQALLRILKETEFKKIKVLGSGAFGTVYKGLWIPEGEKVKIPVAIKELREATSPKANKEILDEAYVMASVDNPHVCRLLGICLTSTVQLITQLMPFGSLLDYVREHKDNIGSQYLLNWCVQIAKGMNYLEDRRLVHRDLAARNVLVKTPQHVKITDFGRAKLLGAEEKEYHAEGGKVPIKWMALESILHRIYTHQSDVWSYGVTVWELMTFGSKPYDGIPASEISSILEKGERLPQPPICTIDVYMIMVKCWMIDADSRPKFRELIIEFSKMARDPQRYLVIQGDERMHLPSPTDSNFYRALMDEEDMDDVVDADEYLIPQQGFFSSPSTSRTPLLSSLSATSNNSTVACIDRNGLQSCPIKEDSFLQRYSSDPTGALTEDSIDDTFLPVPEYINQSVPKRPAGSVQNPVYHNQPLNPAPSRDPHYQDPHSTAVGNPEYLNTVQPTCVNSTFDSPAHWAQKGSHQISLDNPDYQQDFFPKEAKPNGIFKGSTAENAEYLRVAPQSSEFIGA
T2 sequence (P00533 25-1210 L858R): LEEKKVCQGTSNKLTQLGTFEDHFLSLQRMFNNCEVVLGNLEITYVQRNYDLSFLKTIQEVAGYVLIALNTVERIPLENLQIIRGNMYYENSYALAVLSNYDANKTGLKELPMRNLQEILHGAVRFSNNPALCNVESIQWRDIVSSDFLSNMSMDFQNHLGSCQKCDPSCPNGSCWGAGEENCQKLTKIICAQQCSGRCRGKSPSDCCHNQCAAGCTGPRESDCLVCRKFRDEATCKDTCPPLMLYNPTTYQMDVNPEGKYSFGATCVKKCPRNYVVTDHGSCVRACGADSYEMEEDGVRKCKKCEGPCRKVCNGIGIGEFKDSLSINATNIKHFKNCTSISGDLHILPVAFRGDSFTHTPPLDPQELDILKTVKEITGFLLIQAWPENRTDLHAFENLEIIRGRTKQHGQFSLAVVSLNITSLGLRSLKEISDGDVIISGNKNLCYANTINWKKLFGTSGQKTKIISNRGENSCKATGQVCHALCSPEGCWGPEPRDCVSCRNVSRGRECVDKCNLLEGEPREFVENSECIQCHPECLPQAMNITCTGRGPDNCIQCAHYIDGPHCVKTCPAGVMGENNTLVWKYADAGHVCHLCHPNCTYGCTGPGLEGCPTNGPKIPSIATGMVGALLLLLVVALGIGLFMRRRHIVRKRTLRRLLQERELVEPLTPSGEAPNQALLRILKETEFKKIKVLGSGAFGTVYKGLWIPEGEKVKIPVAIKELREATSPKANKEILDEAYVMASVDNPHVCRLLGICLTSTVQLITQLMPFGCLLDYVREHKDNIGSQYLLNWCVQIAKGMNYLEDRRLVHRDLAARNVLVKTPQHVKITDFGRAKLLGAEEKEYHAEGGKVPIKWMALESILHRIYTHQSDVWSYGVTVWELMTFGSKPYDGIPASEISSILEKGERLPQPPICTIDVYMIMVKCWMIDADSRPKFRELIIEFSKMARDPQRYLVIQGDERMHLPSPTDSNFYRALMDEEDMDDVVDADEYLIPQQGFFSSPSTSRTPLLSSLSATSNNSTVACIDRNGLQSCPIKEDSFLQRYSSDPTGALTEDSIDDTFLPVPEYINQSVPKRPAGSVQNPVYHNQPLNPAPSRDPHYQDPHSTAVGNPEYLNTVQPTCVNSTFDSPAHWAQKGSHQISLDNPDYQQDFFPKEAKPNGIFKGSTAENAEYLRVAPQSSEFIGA

As a reminder, the DC50 is the midpoint of the concentration-degradation curve. The low end stands for a more potent degrader, the high end for a less potent degrader. In general, Dmax refers to the greatest extent of degradation seen. Regarding `Cc1cc2cc(n1)-c1cnn(C)c1OC[C@H]1CC[C@H](C1)CN1/C(=N/C2=O)Nc2ccc(N3CCN(CC4CN(c5c(C)cc(C6CCC(=O)NC6=O)nc5C)C4)CC3)cc21` (stereo partly shown) [Example 8, 3-(5-(3-((4-((7^1R,7^3S,E)-1^1,2^6-dimethyl-3-oxo-5^2,5^3-dihydro-1^1H,5^1H-9-oxa-4-aza-5(2,1)-benzo[d]imidazola-2(2,4)-pyridina-1(4,5)-pyrazola-7(1,3)-cyclopentanacyclononaphane-5^6-yl)piperazin-1-yl)methyl)azetidin-1-yl)-4,6-dimethylpyridin-2-yl)piperidine-2,6-dione], the DC50 was 3.18 nM in assay [1] and 3.2 nM in assay [2]. Further, the Dmax was 74.2% in assay [1] and 64% in assay [2].

Consider `COC[C@H]1CN(c2ccc3c(c2)N2C[C@@H]4CC[C@H](COc5c(c(C)nn5C)-c5cc(cc(C)n5)C(=O)/N=C/2N3)C4)CCN1C1CCN(c2c(C)cc(NC3CCC(=O)NC3=O)nc2C)CC1` (stereo partly drawn) [Example 159, 3-((5-(4-((R)-2-(methoxymethyl)-4-((7^1R,7^3S,E)-1^1,1^3,2^6-trimethyl-3-oxo-5^2,5^3-dihydro-1^1H,5^1H-9-oxa-4-aza-5(2,1)-benzo[d]imidazola-2(2,4)-pyridina-1(4,5)-pyrazola-7(1,3)-cyclopentanacyclononaphane-5^6-yl)piperazin-1-yl)piperidin-1-yl)-4,6-dimethylpyridin-2-yl)amino)piperidine-2,6-dione], for which, in assay [1], the DC50 turned out to be 3.75 nM and the Dmax was found to be 81.3%. Moreover, in assay [2], it took 9.56 nM to reach half-maximal degradation (DC50) and the Dmax was determined as 77.5%.

In the case of `Cc1cc2cc(n1)-c1cnn(C)c1OC[C@H]1CC[C@H](C1)CN1/C(=N/C2=O)Nc2ccc(N3CCN(C4CCN(c5cc(F)c(C6CCC(=O)NC6=O)nc5C)CC4)CC3)cc21` (stereo partly shown) [Example 6, 3-(5-(4-(4-((7^1R,7^3S,E)-1^1,2^6-dimethyl-3-oxo-5^2,5^3-dihydro-1^1H,5^1H-9-oxa-4-aza-5(2,1)-benzo[d]imidazola-2(2,4)-pyridina-1(4,5)-pyrazola-7(1,3)-cyclopentanacyclononaphane-5^6-yl)piperazin-1-yl)piperidin-1-yl)-3-fluoro-6-methylpyridin-2-yl)piperidine-2,6-dione], the values for the DC50 in assay [1] and in assay [2] were 1.2 nM and 3.1 nM, respectively. The values for the Dmax in assay [1] and in assay [2] were 86.6% and 101%, respectively.

For the compound `Cc1cc2cc(n1)-c1cnn(C)c1OC[C@H]1CC[C@H](C1)CN1/C(=N/C2=O)Nc2ccc(N3CCN([C@@H]4CCN(c5ccc(C6CCC(=O)NC6=O)nc5C)C[C@@H]4F)CC3)cc21` (stereo partly drawn) [Example 12, 3-(5-((3S,4R)-4-(4-((7^1R,7^3S,E)-1^1,2^6-dimethyl-3-oxo-5^2,5^3-dihydro-1^1H,5^1H-9-oxa-4-aza-5(2,1)-benzo[d]imidazola-2(2,4)-pyridina-1(4,5)-pyrazola-7(1,3)-cyclopentanacyclononaphane-5^6-yl)piperazin-1-yl)-3-fluoropiperidin-1-yl)-6-methylpyridin-2-yl)piperidine-2,6-dione], the DC50 in assay [1] was determined as 0.774 nM; in assay [2], 0.493 nM. For the same compound, the Dmax in assay [1] is 88.4%; in assay [2], 90%.

Regarding `CCc1nc(C2CCC(=O)NC2=O)ccc1N1CCC(N2CCN(c3ccc4c(c3)N3C[C@@H]5CC[C@H](COc6c(cnn6C)-c6cc(cc(C)n6)C(=O)/N=C/3N4)C5)CC2)CC1` (stereo partly shown) [Example 4, 3-(5-(4-(4-((7^1R,7^3S,E)-1^1,2^6-dimethyl-3-oxo-5^2,5^3-dihydro-1^1H,5^1H-9-oxa-4-aza-5(2,1)-benzo[d]imidazola-2(2,4)-pyridina-1(4,5)-pyrazola-7(1,3)-cyclopentanacyclononaphane-5^6-yl)piperazin-1-yl)piperidin-1-yl)-6-ethylpyridin-2-yl)piperidine-2,6-dione], the DC50 in assay [1] was 2.34 nM; in assay [2] it was 1.23 nM. Further, the Dmax in assay [1] was found to be 75.4%; in assay [2], 87.6%.

For `Cc1cc2cc(n1)-c1cnn(C)c1OC[C@H]1CC[C@H](C1)CN1/C(=N/C2=O)Nc2ccc(N3CCN(C4CCN(c5cc(F)c([C@H]6CCC(=O)NC6=O)c(F)c5)CC4)CC3)cc21` [Example 1, (R)-3-(4-(4-(4-((7^1R,7^3S,E)-1^1,2^6-dimethyl-3-oxo-5^2,5^3-dihydro-1^1H,5^1H-9-oxa-4-aza-5(2,1)-benzo[d]imidazola-2(2,4)-pyridina-1(4,5)-pyrazola-7(1,3)-cyclopentanacyclononaphane-5^6-yl)piperazin-1-yl)piperidin-1-yl)-2,6-difluorophenyl)piperidine-2,6-dione], in assay [1], the DC50 worked out at 1.41 nM and the Dmax is 79.2%. In assay [2], the DC50 was found to be 3.25 nM and the Dmax turned out to be 89.7%.

On to `Cc1cc2cc(n1)-c1cnn(C)c1OC[C@H]1CC[C@H](C1)CN1/C(=N/C2=O)Nc2ccc(N3CCN(C4CCN(c5cc(F)c([C@H]6CCC(=O)NC6=O)c(F)c5)CC4)CC34COC4)cc21` [Example 10, (R)-3-(4-(4-(5-((7^1R,7^3S,E)-1^1,2^6-dimethyl-3-oxo-5^2,5^3-dihydro-1^1H,5^1H-9-oxa-4-aza-5(2,1)-benzo[d]imidazola-2(2,4)-pyridina-1(4,5)-pyrazola-7(1,3)-cyclopentanacyclononaphane-5^6-yl)-2-oxa-5,8-diazaspiro[3.5]nonan-8-yl)piperidin-1-yl)-2,6-difluorophenyl)piperidine-2,6-dione], for which, in assay [1], half-maximal degradation (DC50) was put at 3.15 nM and the Dmax came to 66.8%. In addition, in assay [2], the DC50 is 4.07 nM and the Dmax was 73%.

`Cc1cc2cc(n1)-c1cnn(C)c1OC[C@H]1CC[C@H](C1)CN1/C(=N/C2=O)Nc2ccc(N3CCN(C4CCN(c5cccc6c5C(C)(C)C(=O)N6C5CCC(=O)NC5=O)CC4)CC3)cc21` (stereo partly shown) [Example 5, 3-(4-(4-(4-((7^1R,7^3S,E)-1^1,2^6-dimethyl-3-oxo-5^2,5^3-dihydro-1^1H,5^1H-9-oxa-4-aza-5(2,1)-benzo[d]imidazola-2(2,4)-pyridina-1(4,5)-pyrazola-7(1,3)-cyclopentanacyclononaphane-5^6-yl)piperazin-1-yl)piperidin-1-yl)-3,3-dimethyl-2-oxoindolin-1-yl)piperidine-2,6-dione]: the DC50 in assay [1] was 0.856 nM; in assay [2], 1.01 nM. Also, the results for the Dmax in assay [1] and in assay [2] were 75.7% and 84.4%, respectively.

With `COC[C@@H]1CN(c2ccc3c(c2)N2C[C@@H]4CC[C@H](COc5c(c(C)nn5C)-c5cc(cc(C)n5)C(=O)/N=C/2N3)C4)CCN1C1CCN(c2c(C)cc(C3CCC(=O)NC3=O)nc2C)CC1` (stereo partly drawn) [Example 147, 3-(5-(4-((S)-2-(methoxymethyl)-4-((7^1R,7^3S,E)-1^1,1^3,2^6-trimethyl-3-oxo-5^2,5^3-dihydro-1^1H,5^1H-9-oxa-4-aza-5(2,1)-benzo[d]imidazola-2(2,4)-pyridina-1(4,5)-pyrazola-7(1,3)-cyclopentanacyclononaphane-5^6-yl)piperazin-1-yl)piperidin-1-yl)-4,6-dimethylpyridin-2-yl)piperidine-2,6-dione], in assay [1], the DC50 came out at 2.02 nM and the Dmax amounted to 63.2%. Besides, in assay [2], half-maximal degradation (DC50) was put at 1.04 nM and the Dmax came to 87.6%.

Regarding `Cc1cc2cc(n1)-c1cnn(C)c1OC[C@H]1CC[C@H](C1)CN1/C(=N/C2=O)Nc2ccc(N3CCN(C4CCN(c5ccc(C6CCC(=O)NC6=O)nc5C)CC4)CC3)cc21` (stereo partly shown) [Example 2, 3-(5-(4-(4-((7^1R,7^3S,E)-1^1,2^6-dimethyl-3-oxo-5^2,5^3-dihydro-1^1H,5^1H-9-oxa-4-aza-5(2,1)-benzo[d]imidazola-2(2,4)-pyridina-1(4,5)-pyrazola-7(1,3)-cyclopentanacyclononaphane-5^6-yl)piperazin-1-yl)piperidin-1-yl)-6-methylpyridin-2-yl)piperidine-2,6-dione], in assay [1], the DC50 came out at 1.38 nM and the Dmax turned out to be 72.6%. Further, in assay [2], the DC50 is 0.879 nM and the Dmax amounted to 87.2%.

(Values after US20240425523A1, “Compounds for the Degradation of EGFR Kinase” (Beigene Switzerland GMBH, priority 2023, published 2024).)
